Reference: patent US20160346289A1, “Fixed-Dose Combinations of Antiviral Compounds” (MERCK SHARP & DOHME CORP., priority 2014, published 2016)

Assays:
[1] = Human pharmacokinetics of Formulation 4 with and without famotidine, co-dosed with Formulation 1; assay type: in vivo; conditions: Compound II from Formulation 4 co-dosed with Formulation 1; healthy subjects
Protocol: For the treatment with famotidine, single oral doses of 20 mg famotidine (1×20 mg tablet) was administered 10 hours and 2 hours prior to an oral dose of Formulation 1 and Formulation 4.

[2] = Aqueous / pH-dependent solubility; assay type: physicochemical; conditions: between pH 1-3
[3] = Human pharmacokinetics of Formulation 3 with and without 20 mg famotidine; assay type: in vivo; conditions: conventional formulation of Compound II
Protocol: The oral absorption obtained from Formulation 3 with and without pH-modifying medications (20 mg famotidine) was evaluated as part of human clinical study. For the treatment with famotidine, single oral doses of 20 mg famotidine (1×20 mg tablet) were administered on the previous evening and 2 hours prior to a single oral dose of Formulation 3.

SMILES: COC(=O)N[C@H](C(=O)N1CCC[C@H]1c1nc(-c2ccc3c(c2)O[C@@H](c2ccccc2)n2c-3cc3cc(-c4c[nH]c([C@@H]5CCCN5C(=O)[C@@H](NC(=O)OC)C(C)C)n4)ccc32)c[nH]1)C(C)C [Compound II, dimethyl N,N′-([(6S)-6-phenylindolo[1,2-c][1,3]benzoxazine-3,10-diyl]bis{1H-imidazole-5,2-diyl-(2S)-pyrrolidine-2,1-diyl[(2S)-3-methyl-1-oxobutane-1,2-diyl]})dicarbamate]
- exposure following famotidine versus without famotidine [1]: comparable
- pH-dependent solubility profile [2]: sharp pH-dependent solubility profile
- absorption upon co-administration with a pH-raising medication [3]: poor absorption
